Values of other authors, collected in patent US20090048319A1, “Method of Using a Micronutrient as Safener for a Triazole for Controlling Harmful Fungi” (priority 2006, published 2009).

Tested on: wheat
Conditions: in vivo

In the case of `CC1(C)CC/C(=C\c2ccc(Cl)cc2)C1(O)Cn1cncn1` (stereo not shown) [triticonazole, (5E)-5-[(4-chlorophenyl)methylene]-2,2-dimethyl-1-(1H-1,2,4-triazol-1-ylmethyl)cyclopentanol], the “negative effect on plant growth” value is listed as “strongly reduced longitudinal growth”.
